# Measurements reported in article PMC3914206.
# What was measured:
# Format in all cases: binding
# panel of 442 kinases [1] = molecular target: T1, panel of 442 kinases (Homo sapiens, UniProt O14578); conditions: Compound Concentration 10 µM
# T1 construct: purchased KINOMEscan
# From the text: (§1) We assessed the selectivity of members of this scaffold using the KINOMEscan methodology across a near comprehensive panel of 442 kinases [[18,27]].
# panel of 442 kinases [2] = molecular target: T2, panel of 442 kinases (Homo sapiens, UniProt P11309); conditions: Compound Concentration 10 µM
# T2 construct: purchased KINOMEscan
# From the text: as §1
# panel of 442 kinases [3] = molecular target: T3, panel of 442 kinases (Homo sapiens, UniProt Q9UKI8); conditions: kinase TLK1; compound concentration 10 µM
# T3 construct: purchased KINOMEscan
# T3 sequence (Q9UKI8 1-766): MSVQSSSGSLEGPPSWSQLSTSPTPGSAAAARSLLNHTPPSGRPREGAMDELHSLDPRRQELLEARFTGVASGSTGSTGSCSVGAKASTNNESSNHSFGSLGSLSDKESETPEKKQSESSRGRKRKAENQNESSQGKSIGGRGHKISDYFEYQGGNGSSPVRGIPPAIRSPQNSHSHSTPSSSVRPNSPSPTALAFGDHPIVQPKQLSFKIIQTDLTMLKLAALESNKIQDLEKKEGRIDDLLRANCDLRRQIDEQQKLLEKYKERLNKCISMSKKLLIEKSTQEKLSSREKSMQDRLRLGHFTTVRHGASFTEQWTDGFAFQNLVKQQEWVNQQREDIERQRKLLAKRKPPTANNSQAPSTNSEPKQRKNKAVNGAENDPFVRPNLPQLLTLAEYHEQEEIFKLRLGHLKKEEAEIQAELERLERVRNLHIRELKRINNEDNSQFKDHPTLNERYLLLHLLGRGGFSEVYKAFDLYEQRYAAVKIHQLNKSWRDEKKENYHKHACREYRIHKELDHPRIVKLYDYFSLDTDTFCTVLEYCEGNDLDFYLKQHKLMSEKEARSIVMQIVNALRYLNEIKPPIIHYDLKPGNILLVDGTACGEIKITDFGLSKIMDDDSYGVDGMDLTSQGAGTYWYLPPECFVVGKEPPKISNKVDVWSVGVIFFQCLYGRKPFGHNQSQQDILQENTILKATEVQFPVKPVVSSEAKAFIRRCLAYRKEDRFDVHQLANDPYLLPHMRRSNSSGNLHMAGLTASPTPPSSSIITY
# From the text: as §1
# T2 sequence (P11309 whole entry): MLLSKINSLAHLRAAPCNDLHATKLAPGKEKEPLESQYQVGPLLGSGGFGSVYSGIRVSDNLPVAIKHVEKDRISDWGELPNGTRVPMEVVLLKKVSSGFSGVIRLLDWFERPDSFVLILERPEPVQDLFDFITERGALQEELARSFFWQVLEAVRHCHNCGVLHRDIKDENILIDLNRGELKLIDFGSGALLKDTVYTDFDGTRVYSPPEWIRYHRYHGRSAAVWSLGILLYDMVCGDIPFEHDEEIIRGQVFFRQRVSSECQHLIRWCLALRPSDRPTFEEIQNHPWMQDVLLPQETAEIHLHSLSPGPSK
# T1 sequence (O14578 whole entry): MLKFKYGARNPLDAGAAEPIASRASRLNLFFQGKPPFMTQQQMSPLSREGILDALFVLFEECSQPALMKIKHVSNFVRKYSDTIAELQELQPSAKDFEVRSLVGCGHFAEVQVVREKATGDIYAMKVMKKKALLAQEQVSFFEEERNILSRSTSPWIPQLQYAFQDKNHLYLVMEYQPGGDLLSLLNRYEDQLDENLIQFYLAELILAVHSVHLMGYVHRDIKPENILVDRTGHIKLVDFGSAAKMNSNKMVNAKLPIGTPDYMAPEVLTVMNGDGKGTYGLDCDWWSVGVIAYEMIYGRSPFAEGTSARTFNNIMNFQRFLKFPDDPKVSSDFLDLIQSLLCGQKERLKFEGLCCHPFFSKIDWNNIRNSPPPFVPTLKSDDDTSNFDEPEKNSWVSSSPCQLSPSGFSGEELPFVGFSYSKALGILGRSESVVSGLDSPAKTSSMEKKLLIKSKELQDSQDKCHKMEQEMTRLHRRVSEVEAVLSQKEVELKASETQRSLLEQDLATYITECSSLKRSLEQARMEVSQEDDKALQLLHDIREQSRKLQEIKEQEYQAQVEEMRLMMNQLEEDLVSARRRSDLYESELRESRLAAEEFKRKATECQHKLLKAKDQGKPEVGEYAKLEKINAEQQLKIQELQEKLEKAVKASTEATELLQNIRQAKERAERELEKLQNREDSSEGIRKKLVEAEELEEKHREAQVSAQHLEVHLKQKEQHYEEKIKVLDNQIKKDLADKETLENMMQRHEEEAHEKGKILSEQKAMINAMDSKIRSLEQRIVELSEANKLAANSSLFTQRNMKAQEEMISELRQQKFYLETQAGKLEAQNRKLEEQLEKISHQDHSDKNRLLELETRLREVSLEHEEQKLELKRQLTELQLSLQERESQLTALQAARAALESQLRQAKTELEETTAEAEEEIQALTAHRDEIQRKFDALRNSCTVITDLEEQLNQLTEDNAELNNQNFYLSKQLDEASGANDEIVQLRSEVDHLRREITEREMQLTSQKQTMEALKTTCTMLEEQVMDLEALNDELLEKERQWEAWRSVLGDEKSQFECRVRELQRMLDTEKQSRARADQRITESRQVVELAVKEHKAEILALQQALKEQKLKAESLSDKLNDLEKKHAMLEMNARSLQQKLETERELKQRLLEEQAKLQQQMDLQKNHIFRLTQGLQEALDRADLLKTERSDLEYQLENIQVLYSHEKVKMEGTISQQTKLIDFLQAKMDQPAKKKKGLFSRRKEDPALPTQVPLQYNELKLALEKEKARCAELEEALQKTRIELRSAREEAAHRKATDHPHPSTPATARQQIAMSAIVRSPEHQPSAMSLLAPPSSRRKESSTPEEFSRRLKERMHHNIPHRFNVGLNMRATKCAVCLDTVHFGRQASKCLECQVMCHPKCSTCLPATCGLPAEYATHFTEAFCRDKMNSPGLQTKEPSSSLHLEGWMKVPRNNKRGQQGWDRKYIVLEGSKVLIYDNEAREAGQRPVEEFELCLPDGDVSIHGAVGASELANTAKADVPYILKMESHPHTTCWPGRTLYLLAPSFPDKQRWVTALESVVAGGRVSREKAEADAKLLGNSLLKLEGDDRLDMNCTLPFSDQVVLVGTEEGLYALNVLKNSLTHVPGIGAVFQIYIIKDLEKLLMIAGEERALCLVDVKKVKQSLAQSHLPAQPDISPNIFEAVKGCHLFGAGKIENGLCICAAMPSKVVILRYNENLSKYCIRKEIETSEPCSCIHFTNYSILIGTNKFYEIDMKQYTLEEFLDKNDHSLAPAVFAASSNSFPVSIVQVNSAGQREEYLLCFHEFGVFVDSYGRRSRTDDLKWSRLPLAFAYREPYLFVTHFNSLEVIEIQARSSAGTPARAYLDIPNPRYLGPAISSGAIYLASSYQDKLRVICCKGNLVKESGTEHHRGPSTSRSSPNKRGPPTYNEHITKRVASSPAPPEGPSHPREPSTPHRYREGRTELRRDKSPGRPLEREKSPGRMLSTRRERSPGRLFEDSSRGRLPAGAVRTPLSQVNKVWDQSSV
SMILES,KINOMEscan: CIT (panel of 442 kinases [1]),KINOMEscan: PIM1 (panel of 442 kinases [2]),"% Ctrl, TLK1 (panel of 442 kinases [3])"
COc1cc(C(=O)N2CCC(N3CCN(C)CC3)CC2)ccc1Nc1ncc2c(n1)N1CCc3cccc(c31)C(=O)N2C [Compound 24],1.5,,
CCOc1cc(C(=O)N2CCC(N3CCN(C)CC3)CC2)ccc1Nc1ncc2c(n1)N(C1CCCC1)c1ccccc1C(=O)N2C [Compound 26],98,100,90 % Ctrl
"COc1cc(C(=O)N2CCC(N3CCN(C)CC3)CC2)ccc1Nc1ncc2c(n1)N(C1CCCC1)c1ccccc1C(=O)N2C [Compound 25, 11-cyclopentyl-2-((2-methoxy-4-(4-(4-methylpiperazin-1-yl)piperidine-1-carbonyl)phenyl)amino)-5-methyl-5H-benzo[e]pyrimido[5,4-b][1,4]diazepin-6(11H)-one]",66,97,74 % Ctrl
COc1cc(C(=O)N2CCC(N3CCN(C)CC3)CC2)ccc1Nc1ncc2c(n1)N(C)c1ccccc1C(=O)N2C [15 (LRRK2-IN-1)],99,100,100 % Ctrl
